“Also recorded” adds a separate entry of the source.
What was measured:
KMS11-Luc cells = assay: RTCC assay with KMS11-Luc and human T cells, BSBM3 and AL-102 matrix, Example 9; format: cell-based
Description: To evaluate the ability of AL-102 to enhance the activity of BSBM3, a redirected T cell cytotoxicity (RTCC) assay was performed using human T cells and a BCMA-expressing multiple myeloma cell line treated with dose range combinations of BSBM3 and AL-102 in a 10×8 matrix fashion. Human T cells were enriched from peripheral blood of three healthy human donors. First, peripheral blood mononuclear cells (PBMCs) were fractionated from donor blood using a Ficoll-Paque PLUS density gradient (GE Healthcare #17-1440-02) in Leucosep tubes (Greiner #227290) and stored as viable frozen aliquots in liquid nitrogen. PBMC were thawed and Pan T cells were isolated by negative selection according to manufacturer's recommended protocol (Miltenyi #130-096-535). The unlabeled cell fraction, enriched for T cells, was collected by manual magnetic separation on LS columns (Miltenyi #130-042-401). T cells were prepared in T cell media (TCM) consisting of RPMI-1640 (Gibco #11875-085), 10% FBS (Seradigm #1500-500), 1% Pen/Strep (Life Technologies #15070063), 1% L-glutamine (Thermo Scientific #25030-081), 1% Non-Essential Amino Acids (NEAA) (Life Technologies #11140-050), Sodium Pyruvate (NaPy) (Life Technologies #11360-070), HEPES (Life technologies, Cat #15630080), 0.1% 2-Betamercaptoethanol (2-BME) (Life Technologies, Cat #21985-023). KMS11 multiple myeloma cell line was cultured in RPMI1640 supplemented with 20% FBS (Gibco #11875-085, Seradigm #1500-500). The target MM cell line KMS11 was transduced to constitutively express luciferase (KMS11-Luc), and used to measure cell viability/survival. KMS11-Luc cells were pelleted and resuspended in fresh media immediately prior to plating to remove any basal level of shed BCMA that may be present. 7,500 KMS11-Luc target cells in 10 μL TCM were added to wells of 384-well plates (Corning #3765). 10 μl of BSBM3 at a concentration of 10 nM was serially diluted 5-fold, and 10 μl of AL-102 at a concentration of 1000 nM was serially diluted 5-fold, and dispensed into corresponding wells of the assay plates. 15,000 T cells were added to corresponding wells of the assay plate in 10 μL TCM for an E:T of 2:1. The assay was incubated at 37° C./5% CO2 for 48 hr, followed by measurement of luciferase activity to indicate target cell viability (BrightGlo, Promega #E2650) following manufacturer's protocols. Plates were read on an Envision plate reader. Target cells only (KMS11-Luc) without T cells or antibodies served as control and represent 100% luciferase activity (100% viability). Data were plotted and analyzed using GraphPad Prism. EC50 values were calculated using sigmoidal, 4-parameter non-linear regression curve fit.

[1] = tested on: membrane BCMA on KMS11 cells; assay: BCMA membrane expression by flow cytometry after GSI treatment of KMS11 cells; format: cell-based, human
Description: (§1) KMS11-Luc cells were cultured in a 96-well round bottomed plate (Corning #3799) at 1.5×10^5 cells per well in a final volume of 200 μL that included a 12-point, 5-fold serial dilution of AL-102 in RPMI1640 (Gibco #11875-085) supplemented with 20% FBS (Seradigm #1500-500) and L-glutamine (Thermo Fisher #25030-081). The highest starting concentration of AL-102 was 1 μM. Cells were incubated for 20 hours at 37° C./5% CO2. Cells were pelleted, supernatant collected for measurement of shed BCMA levels, and cell pellets stained for evaluation of BCMA membrane expression levels.
Cells were pelleted by centrifugation, and supernatants were transferred to a fresh plate and frozen at −80° C. for later sBCMA analysis by ELISA. For membrane BCMA analysis, cell pellets were resuspended in 100 μL BD Stain Buffer containing BSA (BD#554657) and stained with anti-BCMA-PE (Biolegend, clone 19F2 1.25 ul/test) and Fixable Viability Dye eFluor506 (Thermo Scientific, 1:800 dilution) for 30 minutes at 4° C. Samples were analyzed by flow cytometry on a BD LSR Fortessa instrument. FlowJo v10 software was used for analysis. The anti-BCMA antibody binding capacity (ABC) on KMS11 cells was determined using Quantum Simply Cellular beads (Bangs Laboratories) following a vendor supplied protocol. The ABC is an estimate of the quantity of receptors per cell.

[2] = tested on: BCMA shedding in KMS11 cells; assay: Shed BCMA levels by ELISA after GSI treatment of KMS11 cells; format: cell-based, human; conditions: 20 hours, serial dilution from 1 μM
Description: as §1
Soluble BCMA levels in supernatant were determined by ELISA following a vendor supplied protocol (R&D Systems #DY193). Briefly, recombinant human BCMA-Fc protein was included in the kit, and used to generate a standard curve. Collected samples were assayed and sBCMA concentrations extrapolated from the standard curve. Quantified values as determined by the kit were divided by 5.5 to correct for a molecular mass difference between BCMA-Fc fusion protein used in the kit as a standard curve (32,554.6 Da) and the mass of endogenously shed BCMA extra-cellular domain (5,899.3 Da). The results were analyzed using SoftMax Pro v5.4.1 and graphed in GraphPad Prism.

## Cc1cccc2c1NC(=O)[C@@H](NC(=O)[C@H](CCC(F)(F)F)[C@H](CCC(F)(F)F)C(N)=O)N=C2c1cccc(F)c1 [AL-102]
KMS11-Luc cells; RTCC combination matrix
  AL-102 concentration with minimal effect on BSBM3 potency: ≤ 0.32 nM
  AL-102 concentration with moderate effect on BSBM3 potency: 1.6 nM
  AL-102 concentrations with maximum enhancement of BSBM3 potency: ≥ 8 nM
KMS11-Luc cells; combination with BSBM3
  effect of AL-102 on RTCC potency of BSBM3 (in words): synergistically enhanced the RTCC potency of BSBM3; also recorded: enhanced the RTCC potency of BSBM3 in a dose dependent manner
[1]; 1 μM AL-102 versus untreated KMS11 cells
  increase in cell surface BCMA expression: 20 fold
[1]; KMS11 cells, 1 μM AL-102, 20 hours, untreated ˜14,000
  average BCMA antibody-binding capacity (ABC): ~285,000
[2]
  inhibition of BCMA shedding: effectively inhibited shedding of BCMA from KMS11 cells in a dose-dependent manner

— US20220332821A1, “DOSING REGIMEN AND COMBINATION THERAPIES FOR MULTISPECIFIC ANTIBODIES TARGETING B-CELL MATURATION ANTIGEN” (NOVARTIS AG, priority 2019, published 2022)
